Test results taken from patent US20240123079A1 (Seagen Inc., priority 2021, published 2024).
pEC50, pIC50: −log10 of the molar value. Like-named read-outs stand apart in the source and are kept apart here.

Columns and labels:
human cancer cell lines = assay: Cancer cell direct cytotoxicity assay, panel statement; format: cell-based; conditions: panel of human cancer cell lines
Method: (§1) Bystander activity of ADCs was evaluated using Renca cancer cells and THP1-Dual™ cells (InvivoGen) which contain an IRF-Lucia luciferase reporter. Cells were cultured in RPMI-1640 (Gibco) with 10% heat-inactivated fetal bovine serum, Pen-Strep (100 U/ml-100 μg/ml, Gibco), HEPES (10 mM, Gibco), sodium pyruvate (1 mM, Gibco), MEM non-essential amino acids (1×, Gibco), GlutaMAX (1×, Gibco), and beta-mercaptoethanol (55 μM, Gibco). Renca cells were plated in a 96-well flat bottom tissue culture-treated clear polystyrene plate (Corning Costar #3596) at 50,000 cells per well in 100 μL. On the day following the initial plating, 50,000 THP1-Dual™ cells were added to each well with the indicated concentration of ADC in a total volume of 200 μL. Supernatant was harvested at 48 hours post addition of the THP1-Dual™ cells. To measure Lucia reporter signal, 10 μL of supernatant was combined with 40 μL of QUANTI-Luc™ Luminescence assay reagent (Invivogen PN: rep-qlc1) in a 96-well clear flat bottom tissue culture-treated black polystyrene plate (Corning Costar PN: 3603) and read on a Perkin Elmer Envision plate reader. In some experiments, HEK 293T cells engineered to express a murine protein typically expressed by immune cells (target antigen C— an immune cell antigen) were plated as above instead of Renca tumor cells. Cancer Cell Direct Cytotoxicity Assay
Cancer cells were counted and plated in 40 μL complete growth media in 384-well, white-walled tissue culture treated plates (Corning). Cell plates were incubated at 37° C. and with 5% CO2 overnight to allow the cells to equilibrate. […] The luminescence of the samples was measured using an EnVision Multimode plate reader (Perkin Elmer, Waltham, MA). […]
Compound 12a was conjugated to both targeted and non-binding antibodies using a variety of non-cleavable linkers (12, 17, 19-24) and the resulting ADCs were assessed for their ability to activate THP1-Dual™ reporter cells. […] We also evaluated the ability of these linkers to directly kill cancer cells when conjugated to targeted mAbs binding tumor antigen A or antigen B (CD30).

Ls174T = assay: Cancer cell direct cytotoxicity assay (CellTiter-Glo), Ls174T; format: cell-based; conditions: Homo sapiens, 96 h, free compound, read-out: Compound X50
Method: as §1
(§2) Cancer cells were counted and plated in 40 μL complete growth media in 384-well, white-walled tissue culture treated plates (Corning). Cell plates were incubated at 37° C. and with 5% CO2 overnight to allow the cells to equilibrate. Stock solutions containing ADCs or free drugs were serially diluted in RPMI-1640+20% fetal bovine serum (FBS). 10 μL of each concentration were then added to each cell plate in duplicate. Cells were then incubated at 37° C. and with 5% CO2 for 96 hours, upon which, the cell plates were removed from the incubator and allowed to cool to room temperature for 30 minutes prior to analysis. […] The luminescence of the samples was measured using an EnVision Multimode plate reader (Perkin Elmer, Waltham, MA). […]

L540cy = assay: Cancer cell direct cytotoxicity assay (CellTiter-Glo), L540cy; format: cell-based; conditions: Homo sapiens, 96 h, free compound, read-out: Compound X50
Method: as §1, §2

786-O = assay: Cancer cell direct cytotoxicity assay (CellTiter-Glo), 786-O; format: cell-based; conditions: Homo sapiens, 786-0, 96 h, free compound, read-out: Compound X50
Method: as §1, §2

BxPC3 = assay: Cancer cell direct cytotoxicity assay (CellTiter-Glo), BxPC3; format: cell-based; conditions: Homo sapiens, BXPC-3; BxPC3, 96 h, free compound; read-out: Compound X50
Method: as §1, §2

[1] = tested on: THP1-Dual™ reporter cells; assay: THP1-Dual cell reporter assay (IRF-Lucia luciferase reporter); format: cell-based, human
Outline: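 THP1-Dual monocytic cells (~100,000/well) were exposed to compound for 24 h (ADCs 48 h). Secreted IRF-driven Lucia luciferase in the supernatant was quantified by QUANTI-Luc luminescence.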

MDAMB231 = assay: Cancer cell direct cytotoxicity assay (CellTiter-Glo), MDAMB231; format: cell-based; conditions: Homo sapiens, MDA-MB-231; MDAMB231, 96 h, free compound; read-out: Compound X50
Method: as §1, §2

Karpas299 = assay: Cancer cell direct cytotoxicity assay (CellTiter-Glo), Karpas299; format: cell-based; conditions: Homo sapiens, KARPAS-299; Karpas299, 96 h, free compound; read-out: Compound X50
Method: as §1, §2

A2058 = assay: Cancer cell direct cytotoxicity assay (CellTiter-Glo), A2058; format: cell-based; conditions: Homo sapiens; A2058, 96 h, free compound; read-out: Compound X50
Method: as §1, §2

SU-DHL-4 = assay: Cancer cell direct cytotoxicity assay (CellTiter-Glo), SU-DHL-4; format: cell-based; conditions: Homo sapiens; SU-DHL-4, 96 h, free compound; read-out: Compound X50
Method: as §1, §2

MOLM-13 = assay: Cancer cell direct cytotoxicity assay (CellTiter-Glo), MOLM-13; format: cell-based; conditions: Homo sapiens; MOLM-13, 96 h, free compound; read-out: Compound X50
Method: as §1, §2

DEL = assay: Cancer cell direct cytotoxicity assay (CellTiter-Glo), DEL; format: cell-based; conditions: Homo sapiens, 96 h, free compound, read-out: Compound X50
Method: as §1, §2

DELBVR = assay: Cancer cell direct cytotoxicity assay (CellTiter-Glo), DELBVR; format: cell-based; conditions: Homo sapiens, 96 h, free compound, read-out: Compound X50
Method: as §1, §2

Renca cancer cells = assay: Renca tumor model, in vivo anti-tumor activity and weight change; conditions: Renca tumor-bearing mice
Method: In some experiments, Renca tumor cells were engineered to express the indicated murine or human target antigen.
When tumor volumes reached 100 mm^3, the mice were dosed with either compounds or ADCs by intraperitoneal or intravenous injection at the indicated dosing schedule and tumor volumes were monitored twice weekly. Compounds were formulated in 40% PEG400 in saline.
A syngeneic system was used to assess the ability of the STING agonist ADCs to induce immune responses in vivo and drive an anti-tumor immune response. The Renca system is a subcutaneous, mouse renal adenocarcinoma model. Female Balb/c mice were implanted with 2×10^6 Renca cells subcutaneously in the flank on day 0. When mean tumor size of 100 mm^3 (measured by using the formula Volume (mm^3)=0.5*Length*Width^2 where length is the longer dimension) was reached mice were randomized into treatment groups of ≥5 mice per group. Animals were then treated intraperitoneally (ADCs or compounds) or intravenously (compounds) with the indicated treatment every 7 days, for 3 doses total (or as indicated). Tumor length and width and the weight of the animals was measured throughout the study and tumor volume was calculated using the formula above. Animals were followed until the tumor volume reached ˜1000 mm^3; animals were then euthanized.

[2] = In vivo cytokine assay, plasma of Renca tumor-bearing mice; design: species or system mouse
Method: Cytokines were measured in mouse plasma harvested at 3, 6, 24, or 48 hours after treatment with compounds or ADCs using a Milliplex MAP mouse cytokine/chemokine magnetic bead panel assay kit (MCYTOMAG-70k custom 11-plex kit: MCP1, MIP1α, MIP1β, TNFα, IFNγ, IL-10, IL-12p70, IL-6, IL-1β, IP10, RANTES) and analyzed using a Luminex™ MAGPIX™ Instrument System. Values that were outside of the standard curve range (<3.2 or […]) were excluded from calculation of the mean values.

[3] = Renca tumor-bearing mice, 3 h, 1.86 mg/kg
[4] = Renca tumor-bearing mice, 6 h, 1.86 mg/kg
[5] = Renca tumor-bearing mice, 24 h, 1.86 mg/kg

**Q.** What does the source list for `CCn1nc(C)cc1C(=O)Nc1nc2cc(C(N)=O)cc(OC)c2n1C/C=C/Cn1c(NC(=O)c2cc(C)nn2CC)nc2cc(C(N)=O)cc(OCCCN(C)C(=O)CCN3C(=O)CC(SC[C@H](N)C(=O)O)C3=O)c21` (stereo partly drawn) [Compound 16, S-(1-(3-((3-((5-carbamoyl-1-((E)-4-(5-carbamoyl-2-(1-ethyl-3-methyl-1H-pyrazole-5-carboxamido)-7-methoxy-1H-benzo[d]imidazol-1-yl)but-2-en-1-yl)-2-(1-ethyl-3-methyl-1H-pyrazole-5-carboxamido)-1H-benzo[d]imidazol-7-yl)oxy)propyl)(methyl)amino)-3-oxopropyl)-2,5-dioxopyrrolidin-3-yl)-L-cysteine]?
**A.** direct cytotoxic activity on cancer cell lines (human cancer cell lines): demonstrated direct cytotoxic activity on a subset of cancer cell lines; pIC50 (Ls174T): < 6.00; pIC50 (L540cy): 7.54; pIC50 (786-O): < 6.00; pIC50 (BxPC3): < 6.00; pEC50 ([1]; Homo sapiens, THP1-Dual, 24 h, free compounds, 24 h, Lucia reporter signal; read-out: EC50): 7.47; pEC50 ([1]; free compounds, 24 h, Lucia reporter signal; read-out: EC50): 7.28; pIC50 (MDAMB231): < 6.00; pIC50 (Karpas299): < 6.00; pIC50 (A2058): < 6.00; pIC50 (SU-DHL-4): < 6.00; pIC50 (MOLM-13): 7.57; pIC50 (DEL): 8.40; pIC50 (DELBVR): 8.15

**Q.** Which results are given for `CCn1nc(C)cc1C(=O)Nc1nc2cc(C(N)=O)cc(OC)c2n1C/C=C/Cn1c(NC(=O)c2cc(C)nn2CC)nc2cc(C(N)=O)cc(OCCCN3CCOCC3)c21.O=C(O)C(F)(F)F.O=C(O)C(F)(F)F.O=C(O)C(F)(F)F` [Compound A, (E)-1-(4-(5-carbamoyl-2-(1-ethyl-3-methyl-1H-pyrazole-5-carboxamido)-7-(3-morpholinopropoxy)-1H-benzo[d]imidazol-1-yl)but-2-en-1-yl)-2-(1-ethyl-3-methyl-1H-pyrazole-5-carboxamido)-7-methoxy-1H-benzo[d]imidazole-5-carboxamide tris(2,2,2-trifluoroacetate), reference compound]?
**A.** tolerability (Renca cancer cells): less well tolerated; average weight loss after the 2nd dose (Renca cancer cells; q7dx3): 6.2%; IL1β in plasma [2, 3]: 1.5 pg/mL; IL12p70 in plasma [2, 3]: 0.2 pg/mL; IL-6 in plasma [2, 3]: 3550 pg/mL; IL-10 in plasma [2, 3]: 0.5 pg/mL; IP10 in plasma [2, 3]: 4780 pg/mL; MCP-1 in plasma [2, 3]: 14500 pg/mL; IFNγ in plasma [2, 4]: 71.8 pg/mL; IL1β in plasma [2, 4]: 0.6 pg/mL; IL12p70 in plasma [2, 4]: 0.2 pg/mL; IL-6 in plasma [2, 4]: 732 pg/mL; IL-10 in plasma [2, 4]: < 3.2 pg/mL; IP10 in plasma [2, 4]: 4980 pg/mL; IFNγ in plasma [2, 5]: < 3.2 pg/mL; IL1β in plasma [2, 5]: 0.3 pg/mL; IL12p70 in plasma [2, 5]: < 3.2 pg/mL; IL-6 in plasma [2, 5]: 16.4 pg/mL; IL-10 in plasma [2, 5]: < 3.2 pg/mL; IP10 in plasma [2, 5]: 890 pg/mL; systemic pro-inflammatory cytokine (IL-6 and TNF) production ([2]; plasma of tumor-bearing mice): induced robust production of IL-6 and TNF; pEC50 ([1]; Homo sapiens, THP1-Dual; free compounds, 24 h, Lucia reporter signal; read-out: EC50): 8.52; potency relative to other free compound ([1]; free drug): significantly more potent
